The text below walks through data of patent US10233173B2, “Substituted 1,2,3-triazoles as NR2B-selective NMDA modulators” (JANSSEN PHARMACEUTICA NV, priority 2016, dated 2019).

Chain of human GluN1/GluN2B NMDA receptors (Q13224 27-1484, other chains not shown): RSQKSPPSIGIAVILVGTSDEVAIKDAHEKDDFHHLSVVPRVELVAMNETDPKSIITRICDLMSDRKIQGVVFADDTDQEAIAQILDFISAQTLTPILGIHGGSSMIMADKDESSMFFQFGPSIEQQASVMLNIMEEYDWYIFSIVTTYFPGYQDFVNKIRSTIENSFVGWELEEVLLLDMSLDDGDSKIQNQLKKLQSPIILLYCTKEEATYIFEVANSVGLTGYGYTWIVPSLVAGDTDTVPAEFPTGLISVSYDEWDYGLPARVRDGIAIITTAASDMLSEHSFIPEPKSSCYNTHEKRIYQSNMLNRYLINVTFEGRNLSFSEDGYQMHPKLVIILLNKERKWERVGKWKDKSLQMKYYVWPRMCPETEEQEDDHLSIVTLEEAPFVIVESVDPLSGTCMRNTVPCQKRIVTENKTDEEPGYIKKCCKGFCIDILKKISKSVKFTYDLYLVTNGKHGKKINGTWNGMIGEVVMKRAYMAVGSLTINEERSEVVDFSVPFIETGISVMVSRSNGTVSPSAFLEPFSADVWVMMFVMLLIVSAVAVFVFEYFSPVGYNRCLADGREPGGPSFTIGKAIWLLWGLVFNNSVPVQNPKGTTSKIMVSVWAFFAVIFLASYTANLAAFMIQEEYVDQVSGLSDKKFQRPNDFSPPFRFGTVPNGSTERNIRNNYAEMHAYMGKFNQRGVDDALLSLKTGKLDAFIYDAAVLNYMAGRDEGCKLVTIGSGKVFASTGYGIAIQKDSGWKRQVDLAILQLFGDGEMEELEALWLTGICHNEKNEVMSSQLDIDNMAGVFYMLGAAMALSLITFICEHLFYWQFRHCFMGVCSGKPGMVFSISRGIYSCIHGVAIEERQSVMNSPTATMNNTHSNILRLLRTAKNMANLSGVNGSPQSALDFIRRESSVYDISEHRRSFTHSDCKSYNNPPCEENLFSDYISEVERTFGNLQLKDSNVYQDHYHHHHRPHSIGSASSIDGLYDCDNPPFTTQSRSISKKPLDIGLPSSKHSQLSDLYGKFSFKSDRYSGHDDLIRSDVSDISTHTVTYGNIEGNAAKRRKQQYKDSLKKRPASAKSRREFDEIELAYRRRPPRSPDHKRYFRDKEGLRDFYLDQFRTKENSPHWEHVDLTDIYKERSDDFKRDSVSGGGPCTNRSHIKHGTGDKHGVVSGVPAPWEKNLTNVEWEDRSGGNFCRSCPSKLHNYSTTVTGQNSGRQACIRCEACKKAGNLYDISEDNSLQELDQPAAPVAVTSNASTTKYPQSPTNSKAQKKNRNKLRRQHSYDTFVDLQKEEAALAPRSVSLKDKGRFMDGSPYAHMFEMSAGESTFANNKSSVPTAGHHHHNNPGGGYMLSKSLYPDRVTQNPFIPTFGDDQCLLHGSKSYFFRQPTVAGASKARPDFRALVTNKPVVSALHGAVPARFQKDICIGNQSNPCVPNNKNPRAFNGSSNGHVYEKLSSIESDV

This test addresses human GluN1/GluN2B NMDA receptors (Homo sapiens, UniProt Q05586+Q13224). Kind of test: Cell-based calcium flux (FLIPR) assay on cloned human NR1/NR2B ion channels expressed in mammalian cells. As to conditions: standard assay; glutamate at ~EC80; FLIPR calcium flux. The gist of the method: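 Calcium influx followed by FLIPR fluorescence after 5 min compound exposure and a further 5 min co-agonist challenge: 10 μM glycine with glutamate at ~EC80 (standard) or EC40 (HTS).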
Turning to `Fc1ccc(-n2cc(COc3nccc(C(F)F)n3)nn2)cc1C(F)(F)F` [Example 440, 4-(Difluoromethyl)-2-[[1-[4-fluoro-3-(trifluoromethyl)phenyl]triazol-4-yl]methoxy]pyrimidine], the IC50 was 0.098 µM. In the case of `COc1ccnc(OCc2cn(-c3ccc(F)c(C(F)(F)F)c3)nn2)n1` [Example 442, 2-[[1-[4-Fluoro-3-(trifluoromethyl)phenyl]triazol-4-yl]methoxy]-4-methoxy-pyrimidine], the half-maximal inhibitory concentration (IC50) is 0.072 µM. As to `CCOc1cnc(OCc2cn(-c3ccc(F)c(C(F)(F)F)c3)nn2)nc1` [Example 443, 5-Ethoxy-2-[[1-[4-fluoro-3-(trifluoromethyl)phenyl]triazol-4-yl]methoxy]pyrimidine], the IC50 turned out to be 0.004 µM. Consider `Cc1nc(OCc2cn(-c3ccc(F)c(C(F)(F)F)c3)nn2)ncc1Cl` [Example 444, 5-Chloro-2-[[1-[4-fluoro-3-(trifluoromethyl)phenyl]triazol-4-yl]methoxy]-4-methyl-pyrimidine], for which the IC50 was 0.013 µM.

Take `Cc1nc(OCc2cn(-c3ccc(F)c(C(F)(F)F)c3)nn2)ncc1F` [Example 445, 5-Fluoro-2-[[1-[4-fluoro-3-(trifluoromethyl)phenyl]triazol-4-yl]methoxy]-4-methyl-pyrimidine]: the IC50 came to 0.006 µM. In the case of `CC(=O)c1cnc(OCc2cn(-c3ccc(F)c(C(F)(F)F)c3)nn2)nc1` [Example 447, 1-[2-[[1-[4-Fluoro-3-(trifluoromethyl)phenyl]triazol-4-yl]methoxy]pyrimidin-5-yl]ethanone], the IC50 turned out to be 0.014 µM. Turning to `CNc1ccnc(OCc2cn(-c3ccc(F)c(C(F)(F)F)c3)nn2)n1` [Example 449, 2-[[1-[4-Fluoro-3-(trifluoromethyl)phenyl]triazol-4-yl]methoxy]-N-methyl-pyrimidin-4-amine], the IC50 stood at 0.034 µM. For `CN(C)c1ccnc(OCc2cn(-c3ccc(F)c(C(F)(F)F)c3)nn2)n1` [Example 450, 2-[[1-[4-Fluoro-3-(trifluoromethyl)phenyl]triazol-4-yl]methoxy]-N,N-dimethyl-pyrimidin-4-amine], the IC50 was found to be 0.03 µM. On to `CNc1nc(OCc2cn(-c3ccc(F)c(C(F)(F)F)c3)nn2)ncc1F` [Example 451, 5-Fluoro-2-[[1-[4-fluoro-3-(trifluoromethyl)phenyl]triazol-4-yl]methoxy]-N-methyl-pyrimidin-4-amine], for which the IC50 turned out to be 0.298 µM. In the case of `CNC(=O)c1cnc(OCc2cn(-c3ccc(F)c(C(F)(F)F)c3)nn2)nc1` [Example 452, 2-[[1-[4-Fluoro-3-(trifluoromethyl)phenyl]triazol-4-yl]methoxy]-N-methyl-pyrimidine-5-carboxamide], the IC50 amounted to 0.218 µM. Regarding `Fc1ccc(-n2cc(COc3ncc(C4CC4)cn3)nn2)cc1C(F)(F)F` [Example 453, 5-Cyclopropyl-2-[[1-[4-fluoro-3-(trifluoromethyl)phenyl]triazol-4-yl]methoxy]pyrimidine], the IC50 was 0.022 µM.

For `Fc1ccc(-n2cc(COc3ncc(Br)cn3)nn2)cc1C(F)(F)F` [Example 454, 5-Bromo-2-((1-(4-fluoro-3-(trifluoromethyl)phenyl)-1H-1,2,3-triazol-4-yl)methoxy)pyrimidine], the IC50 was 0.013 µM. `Fc1ccc(-n2cc(COc3ncc(N4CC(F)C4)cn3)nn2)cc1C(F)(F)F` [Example 455, 2-((1-(4-Fluoro-3-(trifluoromethyl)phenyl)-1H-1,2,3-triazol-4-yl)methoxy)-5-(3-fluoroazetidin-1-yl)pyrimidine]: the IC50 was determined as 0.034 µM. To `Fc1ccc(-n2cc(COc3ncc(N4CCOCC4)cn3)nn2)cc1C(F)(F)F` [Example 456, 4-(2-((1-(4-Fluoro-3-(trifluoromethyl)phenyl)-1H-1,2,3-triazol-4-yl)methoxy)pyrimidin-5-yl)morpholine] belongs 0.5 µM; to `Cc1nc(OCc2cn(-c3ccc(F)c(C(F)(F)F)c3)nn2)ncc1N1CCC1` [Example 457, 5-(Azetidin-1-yl)-2-((1-(3-(trifluoromethyl)-4-fluorophenyl)-1H-1,2,3-triazol-4-yl)methoxy)-4-methylpyrimidine], 0.296 µM.

What is called IC50 is the point on the concentration scale where inhibition reaches its midpoint.
